According to paper PMC6009866, “Inhibition behaviours of some phenolic acids on rat kidney aldose reductase enzyme: an in vitro study” (Journal of Enzyme Inhibition and Medicinal Chemistry, 2017):
Entries after “also recorded” stand apart in the source; their conditions may differ.

Legend:
[1] = target: T1, rat kidney aldose reductase (Rattus norvegicus, UniProt P07943); assay: In vitro inhibition of purified rat kidney aldose reductase (NADPH absorbance decrease at 340 nm); type: biochemical; settings: for Inhibition type: from Lineweaver-Burk graph, substrate DL-glyceraldehyde; for IC50: purified rat kidney AR, 10 mM DL-glyceraldehyde, 0.5 mM NADPH, pH 6.2, from Activity%-[Inhibitor] graphs; for Inhibition effect (in words): rat kidney AR, compared to the other phenolic acids of the study
T1 construct: Purified rat kidney aldose reductase enzyme; from tissue; host or cells: rat kidney
Experimental: Aldose reductase activity was assayed by following the absorbance decrease of NADPH at 340 nm spectrophotometrically.
The dialyzed enzyme solution was loaded onto the DE-52 Cellulose anion exchange column previously equilibrated with 10 mM Na-phosphate buffer (pH 7.4). […] Eluted fractions were collected, and the enzyme activity was checked at 340 nm. The fractions with the enzyme activity were pooled and mixed with glycerol. Then this enzyme solution was loaded onto the Sephadex G-100 column equilibrated with 10 mM Na-phosphate buffer (pH 7.4). Fractions were analyzed for both protein amount (280 nm) and enzyme activity (340 nm). […] The enzyme activity was checked at 340 nm in collected fractions, and the tubes with enzyme activity were combined. All purification procedures were performed at 4 °C. SDS polyacrylamide gel electrophoresis was done to the control of enzyme purity.
In inhibition studies, aldose reductase activity was assayed by following the change in absorbance at 340 nm, spectrophotometrically. One millilitre of the reaction mix contained 0.2 M Na-phosphate buffer (pH = 6.2), 10 mM DL-glyceraldehyde, 0.5 mM NADPH and enzyme solution[45]. AR activity was measured in the presence of different concentrations of phenolic acids. A control sample without inhibitor was taken as 100%, and for each inhibitor, an Activity%-[Inhibitor] graphs were drawn. IC50 values were determined from Activity%-[Inhibitor] graphs. For determination of the Ki constant, three different phenolic acid concentrations were used, and DL-glyceraldehyde was also used as a substrate at five different concentrations. […] Analysis of data obtained was made by t-test and they are given as X ± SD.

[2] = test system: human placental aldose reductase; design: method as in PMID 2505942; settings: cited from earlier work
[3] = Lineweaver-Burk graph, three inhibitor concentrations, five DL-glyceraldehyde concentrations, X ± SD
[4] = mixed-type inhibition, second constant, Lineweaver-Burk graph, X ± SD

Row | Compound | Ki [1, 3] [µM] | Inhibition type [1] | IC50 [1] [µM] | Inhibition effect (in words) [1] | Ki [1, 4] [µM] | Ki' [1, 4] [µM] | Inhibition effect (in words) [2] | Inhibition type [2]
1 | O=C(O)c1ccc(O)cc1 [4-Hydroxybenzoic acid] | 52.2 ± 20.8 | Noncompetitive | 50 |  |  |  |  | 
2 | COc1cc(C=CC(=O)O)ccc1O [Ferullic acid, 4-Hydroxy-3-methoxycinnamic acid] | 72.5 ± 29.9 | Noncompetitive | 69 |  |  |  |  | 
3 | COc1cc(C(=O)O)cc(OC)c1O [Syringic acid] | 107 ± 21.6 | Noncompetitive | 95 |  |  |  |  | 
4 | COc1cc(C=CC(=O)O)cc(OC)c1O [Sinapic acid, 3,5-Dimethoxy-4-hydroxycinnamic acid] | 43.4 | Noncompetitive | 33 |  |  |  |  | 
5 | O=C(O)c1cccc(O)c1 [3-Hydroxybenzoic acid, 3-hydroxybenzoic acid] | 176 ± 24.5 | Noncompetitive | 150 |  |  |  |  | 
6 | O=C(O)/C=C/c1ccc(O)cc1 [p-Coumaric acid, trans-4-Hydroxycinnamic acid] | 53.1 ± 2 | Uncompetitive | 57 |  |  |  |  | 
7 | O=C(O)c1ccc(O)c(O)c1 [Protocatechuic acid, 3,4-dihydroxybenzoic acid] | 46.3 ± 31.5 | Noncompetitive | 48 |  |  |  |  | 
8 | O=C(O)c1cc(O)c(O)c(O)c1 [Gallic acid] | 219 ± 56.3 | Noncompetitive | 176 | weak inhibition effect |  |  |  | 
9 | COc1cc(C(=O)O)ccc1O [Vanillic acid, 4-hydroxy-3-methoxybenzoic acid] | 103 ± 56.3 | Noncompetitive | 86 |  |  |  |  | 
10 | O=C(O)c1cc(O)cc(O)c1 [α-Resorcylic acid, 3,5-dihydroxybenzoic acid] | 127 ± 22 | Noncompetitive | 110 |  |  |  |  | 
11 | O=C(/C=C/c1ccc(O)c(O)c1)O[C@@H]1C[C@](O)(C(=O)O)C[C@@H](O)[C@H]1O [Chlorogenic acid] | 1.56 ± 0.436 | mixed type | 5.47 | strong inhibition effect | 28.05 | 28.05 ± 10.210 |  | 
12 | O=C(OCC1OC(OC(=O)c2cc(O)c(O)c(OC(=O)c3cc(O)c(O)c(O)c3)c2)C(OC(=O)c2cc(O)c(O)c(OC(=O)c3cc(O)c(O)c(O)c3)c2)C(OC(=O)c2cc(O)c(O)c(OC(=O)c3cc(O)c(O)c(O)c3)c2)C1OC(=O)c1cc(O)c(O)c(OC(=O)c2cc(O)c(O)c(O)c2)c1)c1cc(O)c(O)c(OC(=O)c2cc(O)c(O)c(O)c2)c1 (stereo not shown) [Tannic acid] | 0.598 ± 0.148 | Noncompetitive | 0.5 | strong inhibition effect; also recorded: potent inhibition effect |  |  | potent inhibitor | mixed type
